Data reported in article PMC5801568, “Liquid chromatography–tandem mass spectrometry for the simultaneous quantitation of ceftriaxone, metronidazole and hydroxymetronidazole in plasma from seriously ill, severely malnourished children” (Wellcome Open Research, 2018).

Tests used:
[1] = Bench-top (short term) stability in matrix at room temperature; format: physicochemical, human; details: 8 h, n=5
Experimental: (§1) Stability (ST%) studies were evaluated via sample and solution concentrations, where:
(§2) ST% is the stability of the chemical compound in the sample over the period of time. c 0 is the initial concentration, determined without introducing any extra pauses in the analysis process. c t is the concentration obtained after the storage period with time t.
Bench-top stability was evaluated by keeping plasma samples at low and high quality control levels at ambient temperatures (< 28°C) for at least 8h then processed and analyzed. Selected ambient temperature covered the temperature range for study samples, as ambient temperatures remained < 28°C.

[2] = Freeze-thaw stability (3 cycles at -20°C); format: physicochemical, human; details: 3 freeze-thaw cycles at -20°C, n=5
Experimental: as §1, §2
Spiked plasma samples were subjected to three freeze-thaw cycles at -20°C and the analytes concentrations assessed after the third cycle. This was done also for plasma ultra-filtrate spiked with CEF to assess the stability of free ceftriaxone in calibrators and quality control samples.

[3] = Auto-sampler (processed sample) stability; format: physicochemical, human; details: 24 h at 18°C, n=5
Experimental: as §1, §2
Processed sample stability was assessed by letting the samples stay in the autosampler at 18°C for 24h and then they were analyzed the following day. This was done to ensure data integrity in case of equipment failure and initiation of a re-run.

[4] = Long-term stability at -20°C; format: physicochemical, human; details: 90 days at -20°C, n=5
Experimental: as §1, §2
Long term stability of the analytes was studied over a period that covered the duration of storage of the study samples from collection to the last sample analysis, this ensured that the integrity of study samples was not compromised over the period of storage. To investigate long term stability, two sets of sample aliquots were prepared at concentrations corresponding to low and high quality control levels. The first set was processed and analyzed at day 1 and the second set after 90 days of storage at -20°C. The analyte concentrations in the plasma and ultra-filtrate samples at 90 days of storage was compared with those obtained on day 1 to determine the percentage stability.

[5] = Sub-stock solution stability at -20°C; format: physicochemical; details: solution in 20% methanol, 28 days at -20°C; nominal conc. MET 50, CEF 300, MET-OH 30 µg/mL
Experimental: Stock solutions of CEF (5 mg of the base/mL), MET and MET-OH (both 1 mg/mL) were prepared by dissolving an appropriate amount of each compound in 20% methanol. The stock solutions were further serially diluted with 20% methanol to make working standard solutions used to spike the blank plasma to produce 0.4, 12, 24, 48, 96,150,220, 300 µg/mL CEF and 1.2, 120, 240 µg/mL QCs; 0.05, 1.0, 2.0, 4.0, 8.0, 16.0, 32.0, 50 µg/mL MET and 0.15, 20, 40 µg/mL QCs; 0.02, 0.8, 1.6, 3.2, 6.4, 13, 20, 30 µg/mL MET-OH and 0.06, 12, 24 µg/mL QCs. Stock solution of CEFU (IS) was prepared by dissolving appropriate amount of the compound in acetonitrile, the stock solution was serially diluted with acetonitrile to make working standard solutions of 1.25 µg/mL and 1 µg/mL. All the stock solutions were stored at -20°C, protected from light (in amber sample vials) and used within three months.
Sub-stock solution stability was evaluated for CEF, MET and MET-OH, by comparing the response generated from the same solution at preparation and after being stored at -20°C for a period of 28 days. […] The stability was reported as coefficient of variation between the initial concentration and the concentration at day 28.

[6] = Plasma concentrations in hospitalized children with severe acute malnutrition (LC-MS/MS); format: in vivo; details: human, other: intravenous (CEF) and oral (MET), one study participant, oral MET 7.5 mg/Kg given 15 min before; for concentration at 5 min: 5 min after ceftriaxone IV (80 mg/kg); for concentration at 30 min: 30 min after ceftriaxone IV (80 mg/kg)
Experimental: Total drug. To a 50 µL aliquot of plasma (blank, standard, quality control, or patient sample) 200 µL of internal standard (CEFU; of a 1.25 µg/mL solution in acetonitrile) was added. The 1.5 mL polypropylene tubes were vortex-mixed for 3 minutes to precipitate the plasma proteins, followed by centrifugation (4000 x g; 10 min, 4°C). The supernatant (100 µL) was transferred into another clean 1.5 mL polypropylene tube and diluted with 400 µL of 20% methanol in water. The samples were vortex-mixed for 3 minutes and submitted for analysis by LC-MS/MS.
The validated method was successfully applied to a pharmacokinetic study of CEF, MET, MET-OH and unbound ceftriaxone in hospitalized children with complicated severe acute malnutrition (SAM) following an oral administration of MET and intravenous administration of CEF over the course of 72 hours.
81 hospitalized children with SAM and requiring IV antibiotics according to WHO and national guidelines were recruited (after obtaining ethical approval from the Kenya Medical Research Institute Scientific and Ethics Review Unit, approval number: KEMRI/SERU/CGMR-C023-3161 and informed consent from the parents/guardians) and treated with an oral dose of 7.5mg/Kg MET (Flagyl ®oral suspension, 200 mg/5 mL) three times daily and IV injection of 80 mg/kg CEF (Ceftriaxone Rocephin ®, 250 mg) once daily 15 min after metronidazole dose. Blood samples (3.0 mL) were collected into Li-heparinized tubes, a pre-dose sample was taken before administering the drugs. Further sampling at 5, 30, 60 min after ceftriaxone dose and 2, 4, and 8 h after metronidazole dose. The sampling plan was such that each patient had only three blood draws after the base-line sample. The blood was centrifuged (3000 rpm; 5 min), plasma separated and stored at -80°C until analysis time.

[7] = set-up: method as in Wong et al. [17]; details: ref Wong et al. [17]; cited from earlier work
[8] = set-up: method as in Silva et al. [12]; details: over a period of 48h; ref Silva et al. [12]; cited from earlier work
[9] = set-up: method as in Ilomuanya et al. [15]; details: after the fourth freeze/thaw cycle; ref Ilomuanya et al. [15]; cited from earlier work
[10] = set-up: method as in Ilomuanya et al. [15]; details: at 72h; ref Ilomuanya et al. [15]; cited from earlier work
[11] = plasma ultra-filtrate, spiked conc. 1.2 µg/mL
[12] = plasma ultra-filtrate, spiked conc. 240 µg/mL
[13] = plasma, high QC spiked conc. (MET 40, CEF 240, MET-OH 24 µg/mL)
[14] = plasma, low QC spiked conc. (MET 0.15, CEF 1.2, MET-OH 0.06 µg/mL)
[15] = processed plasma samples, high QC spiked conc. (MET 40, CEF 240, MET-OH 24 µg/mL)
[16] = processed plasma samples, low QC spiked conc. (MET 0.15, CEF 1.2, MET-OH 0.06 µg/mL)

## CO/N=C(\C(=O)N[C@@H]1C(=O)N2C(C(=O)O)=C(CSc3nc(=O)c(=O)[nH]n3C)CS[C@H]12)c1csc(N)n1 [CEF, Ceftriaxone sodium]
[1]; [11]
  Benchtop stability in matrix ST %: 99.8%
[1]; [12]
  Benchtop stability in matrix ST %: 105.8%
[1]; [13]
  Benchtop stability in matrix ST %: 96.0%
[1]; [14]
  Benchtop stability in matrix ST %: 98.1%
[2]; [11]
  Freeze-thaw stability ST %: 93.0%
[2]; [12]
  Freeze-thaw stability ST %: 92.2%
[2]; [13]
  Freeze-thaw stability ST %: 95.3%
[2]; [14]
  Freeze-thaw stability ST %: 95.8%
[3]; [15]
  Auto-sampler stability ST %: 95.4%
[3]; [16]
  Auto-sampler stability ST %: 90.6%
[3]; processed plasma ultra-filtrate, spiked conc. 1.2 µg/mL
  Auto-sampler stability ST %: 98.4%
[3]; processed plasma ultra-filtrate, spiked conc. 240 µg/mL
  Auto-sampler stability ST %: 94.2%
[4]; [11]
  Long-term stability ST %: 94.4%
[4]; [12]
  Long-term stability ST %: 92.4%
[4]; [13]
  Long-term stability ST %: 90.6%
[4]; [14]
  Long-term stability ST %: 92.2%
[5]
  Sub-stock solution stability ST %: 96.1%
[6]
  concentration at 5 min: 266000 ng/mL
  concentration at 30 min: 74400 ng/mL
[7]
  Average protein binding: 89.5%

## O=[N+]([O-])c1cnc(CO)n1CCO [MET-OH, 1-(2-hydroxyethyl)-2-hydroxymethyl-5-nitroimidazole]
[1]; [13]
  Benchtop stability in matrix ST %: 102.2%
[1]; [14]
  Benchtop stability in matrix ST %: 99.5%
[2]; [13]
  Freeze-thaw stability ST %: 100.7%
[2]; [14]
  Freeze-thaw stability ST %: 97.2%
[3]; [15]
  Auto-sampler stability ST %: 92.8%
[3]; [16]
  Auto-sampler stability ST %: 103.3%
[4]; [13]
  Long-term stability ST %: 92.0%
[4]; [14]
  Long-term stability ST %: 99.1%
[5]
  Sub-stock solution stability ST %: 95.4%
[6]
  concentration at 5 min: 130 ng/mL
  concentration at 30 min: 660 ng/mL

## Cc1ncc([N+](=O)[O-])n1CCO [MET, metronidazole]
[1]; [13]
  Benchtop stability in matrix ST %: 98.3%
[1]; [14]
  Benchtop stability in matrix ST %: 105.8%
[2]; [13]
  Freeze-thaw stability ST %: 93.5%
[2]; [14]
  Freeze-thaw stability ST %: 96.1%
[3]; [15]
  Auto-sampler stability ST %: 93.7%
[3]; [16]
  Auto-sampler stability ST %: 101.5%
[4]; [13]
  Long-term stability ST %: 93.8%
[4]; [14]
  Long-term stability ST %: 95.2%
[5]
  Sub-stock solution stability ST %: 95.8%
[6]
  concentration at 5 min: 2540 ng/mL
  concentration at 30 min: 1990 ng/mL
[8]
  Mean stability: 93.6% - 100.6%
[9]
  Concentration remaining after freeze/thaw: < 90%
[10]
  Autosampler stability: 40.6%–58.7%
